The target of assay [1] is T1, 5-HT1A receptor (rat hippocampus) (Rattus norvegicus, UniProt P19327).
T1 construct: hippocampus; from tissue; host or cells: rat hippocampus
T1 sequence (P19327 1-422): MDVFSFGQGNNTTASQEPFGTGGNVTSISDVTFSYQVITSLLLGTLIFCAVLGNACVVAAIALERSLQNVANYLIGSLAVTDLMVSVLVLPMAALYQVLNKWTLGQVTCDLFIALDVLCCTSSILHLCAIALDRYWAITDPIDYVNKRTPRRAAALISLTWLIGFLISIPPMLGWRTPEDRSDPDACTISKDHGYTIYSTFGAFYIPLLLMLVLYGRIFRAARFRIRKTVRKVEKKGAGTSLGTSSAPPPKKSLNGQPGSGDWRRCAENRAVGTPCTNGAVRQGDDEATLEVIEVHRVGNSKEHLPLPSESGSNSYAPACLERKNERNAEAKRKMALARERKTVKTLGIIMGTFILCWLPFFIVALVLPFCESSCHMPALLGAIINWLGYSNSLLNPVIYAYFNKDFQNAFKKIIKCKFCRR
Nature of the assay: Radioligand binding assay, serotoninergic 5-HT1A receptors. To be noted: binding assay result in %, Table 5a.

In assay [2] the target is dopaminergic receptors D3 (Homo sapiens, UniProt P35462). Nature of the assay: Radioligand binding assay, dopaminergic D3 receptors. The following applies: test compound 1×10^−6 M. Put shortly:
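Competition radioligand binding at human D2, D3 and D4.4 receptors, detected by scintillation counting; nonspecific binding defined with excess unlabelled ligand. Results as percent inhibition of control specific binding; IC50 by Hill-equation nonlinear regression; Ki via Cheng-Prusoff, with radioligand KD from Scatchard plot.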

In another assay the target is T2, 5-HT2C receptor (Homo sapiens, UniProt P28335).
T2 construct: expressed in transfected cells; host or cells: HEK-293 cells
T2 sequence (P28335 33-458): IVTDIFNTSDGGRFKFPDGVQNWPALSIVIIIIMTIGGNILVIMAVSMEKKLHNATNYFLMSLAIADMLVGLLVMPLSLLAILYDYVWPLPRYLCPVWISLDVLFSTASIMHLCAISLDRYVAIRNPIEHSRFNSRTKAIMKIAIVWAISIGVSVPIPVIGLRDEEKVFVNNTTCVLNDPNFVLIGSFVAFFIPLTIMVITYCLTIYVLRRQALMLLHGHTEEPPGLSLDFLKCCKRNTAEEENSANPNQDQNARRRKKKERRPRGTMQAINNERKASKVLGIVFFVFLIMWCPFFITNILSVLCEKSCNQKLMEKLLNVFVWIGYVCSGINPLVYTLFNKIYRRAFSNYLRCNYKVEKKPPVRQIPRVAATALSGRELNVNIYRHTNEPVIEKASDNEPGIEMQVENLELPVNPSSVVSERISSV
Nature of the assay: Radioligand binding assay, serotoninergic 5-HT2C receptors. To be noted: test compound 1×10^−6 M.

The target of a further assay is T3, 5-HT2A receptor (Homo sapiens, UniProt P28223).
T3 construct: purchased PerkinElmer
T3 sequence (P28223 whole entry): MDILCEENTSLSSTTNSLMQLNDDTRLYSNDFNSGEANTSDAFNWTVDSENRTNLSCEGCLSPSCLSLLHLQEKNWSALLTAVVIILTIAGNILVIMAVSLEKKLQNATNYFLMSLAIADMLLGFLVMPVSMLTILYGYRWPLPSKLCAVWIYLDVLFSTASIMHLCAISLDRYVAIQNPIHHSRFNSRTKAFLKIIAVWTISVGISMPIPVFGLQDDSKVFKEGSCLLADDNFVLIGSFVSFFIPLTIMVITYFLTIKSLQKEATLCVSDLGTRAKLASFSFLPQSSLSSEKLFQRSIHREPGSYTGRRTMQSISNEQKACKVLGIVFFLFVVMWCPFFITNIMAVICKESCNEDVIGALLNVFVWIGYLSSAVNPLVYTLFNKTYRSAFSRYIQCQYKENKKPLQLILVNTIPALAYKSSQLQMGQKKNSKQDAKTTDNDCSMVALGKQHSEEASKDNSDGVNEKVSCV
The assay is described as follows: Radioligand binding assay, serotoninergic 5-HT2A receptors. To be noted: for inhibition at 1 µM: binding assay result in %, Table 5a; for Ki: read-out: Inhibition constants Ki, 5-HT2A. The procedure, abridged:
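Radioligand competition binding with scintillation counting; nonspecific binding defined by excess unlabelled ligand. Data as percent inhibition of control specific binding. IC50 by Hill-equation fit of competition curves; Ki by Cheng-Prusoff, with radioligand Kd from Scatchard plot.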

For assay [3], the target named is dopaminergic receptors D2 (Homo sapiens, UniProt P14416). The assay is described as follows: Radioligand binding assay, dopaminergic D2 receptors. The following applies: for inhibition at 1 µM: binding assay, test compound 1×10^−6 M; for Ki: read-out: Inhibition constants Ki for D2 receptors, D2. The procedure, abridged:
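Competition binding with scintillation counting of bound radioligand; specific binding taken as total minus non-specific binding measured with excess unlabelled ligand. IC50 obtained by Hill-equation non-linear regression of replicate-mean curves, then converted to Ki via Cheng–Prusoff using radioligand concentration and Scatchard-derived KD.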

Assay [4] addresses T4, serotonin transporter (SERT) (Homo sapiens, UniProt P31645).
T4 construct: expressed in transfected cells; host or cells: CHO cells
Nature of the assay: Radioligand binding assay, serotonin transporter (SERT). The following applies: binding assay, test compound 1×10^−6 M. Put shortly:
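Radioligand competition binding with scintillation detection; specific binding is total minus binding under excess unlabelled ligand. Reported as % of control specific binding or % inhibition; IC50 from Hill-equation non-linear regression of competition curves, and Ki via Cheng-Prusoff using radioligand concentration and Scatchard-derived KD.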

Assay [5] relates to α1 adrenergic receptors (rat cerebral cortex). The assay is described as follows: Radioligand binding assay, adrenergic α1 receptors. To be noted: test compound 1×10^−6 M. Put shortly:
(§1)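 Values derive from radioligand displacement, with non-specific binding defined by excess cold ligand and detection by scintillation. Hill-fit IC50s were converted to Ki via Cheng-Prusoff using Scatchard-derived Kd; percent inhibition of control specific binding also reported.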

In another assay the test system is σ receptors. The assay is described as follows: Radioligand binding assay, σ receptors. To be noted: rat cerebral cortex, [3H]DTG 8 nM. The procedure, abridged:
as §1

Assay [6] concerns the target T5, H1 histaminergic receptors (Homo sapiens, UniProt P35367).
T5 construct: expressed in transfected cells; host or cells: HEK-293 cells
The assay is described as follows: Radioligand binding assay, histaminergic H1 receptors. The following applies: human recombinant (HEK-293 cells), [3H]pyrilamine 1 nM. Put shortly:
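Competition binding at human H1 receptors; specific binding taken as total minus non-specific binding in excess unlabelled ligand, scintillation read-out. IC50 from Hill-equation fit of competition curves; Ki by Cheng-Prusoff using radioligand concentration and Kd (from Scatchard plot).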

For the next assay, the target named is T6, M3 muscarinic receptors (Homo sapiens, UniProt P20309).
T6 construct: expressed in transfected cells; host or cells: CHO cells
T6 sequence (P20309 whole entry): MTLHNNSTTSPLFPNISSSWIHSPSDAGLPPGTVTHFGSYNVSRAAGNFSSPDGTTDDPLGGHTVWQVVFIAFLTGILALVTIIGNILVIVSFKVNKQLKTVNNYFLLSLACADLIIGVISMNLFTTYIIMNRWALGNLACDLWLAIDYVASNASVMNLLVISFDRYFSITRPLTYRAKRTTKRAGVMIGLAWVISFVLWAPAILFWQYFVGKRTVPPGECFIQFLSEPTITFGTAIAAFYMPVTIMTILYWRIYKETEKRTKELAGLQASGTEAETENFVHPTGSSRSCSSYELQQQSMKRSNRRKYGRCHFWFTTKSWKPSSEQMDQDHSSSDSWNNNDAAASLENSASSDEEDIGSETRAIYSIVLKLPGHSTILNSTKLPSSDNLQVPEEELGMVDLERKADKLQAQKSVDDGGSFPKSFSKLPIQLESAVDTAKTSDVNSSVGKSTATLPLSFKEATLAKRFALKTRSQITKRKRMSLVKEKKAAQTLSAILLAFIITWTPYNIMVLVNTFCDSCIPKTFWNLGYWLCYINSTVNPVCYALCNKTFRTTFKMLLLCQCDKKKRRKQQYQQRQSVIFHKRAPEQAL
The assay is described as follows: Radioligand binding assay, muscarinic M3 receptors. The following applies: test compound 1×10^−6 M. The procedure, abridged:
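Radioligand competition binding, detected by scintillation counting; non-specific binding defined with excess unlabelled ligand. Results given as % inhibition of control specific binding; IC50 from Hill-equation fit of competition curves, Ki via Cheng-Prusoff with radioligand KD from Scatchard plot.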

The structures appear in SMILES notation.

Sequence of dopaminergic receptors D2 (P14416 whole entry): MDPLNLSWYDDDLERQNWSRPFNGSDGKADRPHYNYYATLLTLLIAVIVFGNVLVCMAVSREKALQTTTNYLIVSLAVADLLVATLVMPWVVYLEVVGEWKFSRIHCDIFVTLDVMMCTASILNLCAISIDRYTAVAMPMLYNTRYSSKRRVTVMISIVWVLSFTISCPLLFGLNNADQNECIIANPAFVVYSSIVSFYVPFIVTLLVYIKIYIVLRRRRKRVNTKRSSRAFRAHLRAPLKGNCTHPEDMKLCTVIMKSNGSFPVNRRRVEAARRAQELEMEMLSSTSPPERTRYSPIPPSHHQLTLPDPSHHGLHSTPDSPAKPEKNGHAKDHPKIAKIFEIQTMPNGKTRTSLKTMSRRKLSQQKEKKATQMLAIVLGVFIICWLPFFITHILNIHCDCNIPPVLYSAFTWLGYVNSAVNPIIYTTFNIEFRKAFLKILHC
T5 sequence (P35367 whole entry): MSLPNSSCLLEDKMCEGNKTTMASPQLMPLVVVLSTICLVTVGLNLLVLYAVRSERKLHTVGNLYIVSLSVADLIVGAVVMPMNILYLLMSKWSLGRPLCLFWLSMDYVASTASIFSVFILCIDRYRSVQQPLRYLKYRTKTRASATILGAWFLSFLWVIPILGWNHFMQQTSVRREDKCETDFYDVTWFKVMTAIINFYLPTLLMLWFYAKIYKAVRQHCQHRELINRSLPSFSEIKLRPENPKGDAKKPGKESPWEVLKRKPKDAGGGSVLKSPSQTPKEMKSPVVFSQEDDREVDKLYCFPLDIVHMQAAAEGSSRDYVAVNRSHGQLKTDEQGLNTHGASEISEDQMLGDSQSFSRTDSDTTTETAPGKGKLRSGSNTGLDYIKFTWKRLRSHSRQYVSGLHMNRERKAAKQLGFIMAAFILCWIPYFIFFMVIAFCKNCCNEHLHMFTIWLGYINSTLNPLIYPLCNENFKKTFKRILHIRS
T4 sequence (P31645 whole entry): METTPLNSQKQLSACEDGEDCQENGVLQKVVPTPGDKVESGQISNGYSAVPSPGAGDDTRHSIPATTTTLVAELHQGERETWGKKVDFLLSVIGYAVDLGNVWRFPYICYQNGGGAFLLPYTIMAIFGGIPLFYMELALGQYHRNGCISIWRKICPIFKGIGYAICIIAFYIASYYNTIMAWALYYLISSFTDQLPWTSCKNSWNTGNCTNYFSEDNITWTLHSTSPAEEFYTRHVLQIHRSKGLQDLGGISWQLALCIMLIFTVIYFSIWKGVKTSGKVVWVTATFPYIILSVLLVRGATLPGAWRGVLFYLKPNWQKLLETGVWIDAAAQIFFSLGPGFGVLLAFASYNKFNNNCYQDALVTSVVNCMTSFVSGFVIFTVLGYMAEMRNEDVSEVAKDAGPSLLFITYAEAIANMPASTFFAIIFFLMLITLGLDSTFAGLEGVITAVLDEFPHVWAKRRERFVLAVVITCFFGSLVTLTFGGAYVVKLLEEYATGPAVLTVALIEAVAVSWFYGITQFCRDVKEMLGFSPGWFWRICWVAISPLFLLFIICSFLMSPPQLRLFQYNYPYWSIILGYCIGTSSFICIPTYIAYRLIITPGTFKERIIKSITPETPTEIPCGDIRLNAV
Sequence of dopaminergic receptors D3 (P35462 whole entry): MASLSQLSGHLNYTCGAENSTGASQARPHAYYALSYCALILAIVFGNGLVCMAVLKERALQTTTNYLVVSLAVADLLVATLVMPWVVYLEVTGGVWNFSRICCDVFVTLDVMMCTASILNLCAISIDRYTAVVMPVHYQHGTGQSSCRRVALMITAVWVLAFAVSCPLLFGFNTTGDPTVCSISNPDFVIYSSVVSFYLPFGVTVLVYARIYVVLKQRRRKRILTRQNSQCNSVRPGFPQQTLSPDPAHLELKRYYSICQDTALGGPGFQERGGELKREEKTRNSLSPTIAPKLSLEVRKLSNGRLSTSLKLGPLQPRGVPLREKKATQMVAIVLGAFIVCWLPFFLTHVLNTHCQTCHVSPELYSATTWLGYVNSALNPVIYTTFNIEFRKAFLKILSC

On to `O=S(=O)(NCC1CN(CCOc2cccc3c2OCCO3)C1)c1cc2ccccc2o1` [Compound 186, N-[[1-[2-(2,3-Dihydro-1,4-benzodioxin-5-yloxy)ethyl]azetidin-3-yl]methyl]-benzofuran-2-sulphonamide], for which the inhibition at 1 µM in [1] was 98%; in assay [2], 78%; at 5-HT2C receptor, 79%; at 5-HT2A receptor, 87%; in assay [3] it was 77%; in assay [4], 39%. The inhibition at 1 µM in assay [6] was 17%; at M3 muscarinic receptors, -9%. The “α1 [%]” value in [5] stood at 80%. The “σ [%]” value in the assay on σ receptors is listed as 84%.
`O=S(=O)(N[C@@H]1CCN(CCCc2noc3cc(F)ccc23)C1)c1cc2ccc(Cl)cc2s1` [Compound 198, 6-Chloro-N-[(3R)-1-[3-(6-fluoro-1,2-benzoxazol-3-yl)propyl]pyrrolidin-3-yl]benzothiophene-2-sulphonamide]: the inhibition at 1 µM in assay [1] stood at 45%; in assay [2], 97%; at 5-HT2C receptor, 86%; in assay [3], 99%; in assay [4], 44%; in [6], 81%. Moreover, the inhibition at 1 µM on M3 muscarinic receptors turned out to be 37%. Also, the Ki at 5-HT2A receptor amounted to 0.7 nM; in assay [3], 1.8 nM. In addition, in assay [5], the “α1 [%]” value is 76%. For the same compound, in the assay with σ receptors, the “σ [%]” value is 86%.
As to `O=S(=O)(N[C@H]1CCN(CCCc2noc3cc(F)ccc23)C1)c1cc2ccc(Cl)cc2s1` [Compound 199, 6-Chloro-N-[(3S)-1-[3-(6-fluoro-1,2-benzoxazol-3-yl)propyl]pyrrolidin-3-yl]benzothiophene-2-sulphonamide], the inhibition at 1 µM in [1] came to 38%; in assay [2] it was 88%; on 5-HT2C receptor it was 83%; in assay [3], 96%; in assay [4], 39%; in assay [6], 58%. The inhibition at 1 µM on M3 muscarinic receptors is 38%. Also, the Ki on 5-HT2A receptor came out at 0.7 nM; in assay [3], 4.4 nM. Besides, in [5], the “α1 [%]” value was 66%. The “σ [%]” value with σ receptors amounted to 80%.
Turning to `Cc1c(S(=O)(=O)N[C@H]2CCN(CCCc3noc4cc(F)ccc34)C2)sc2ccc(Cl)cc12` [Compound 205, 5-Chloro-N-[(3S)-1-[3-(6-fluoro-1,2-benzoxazol-3-yl)propyl]pyrrolidin-3-yl]-3-methyl-benzothiophene-2-sulphonamide], the inhibition at 1 µM in assay [1] was found to be 63%; in assay [2] it was 99%; at 5-HT2C receptor it was 86%; in assay [3] it was 99%; in assay [4] it was 45%; in assay [6] it was 50%. Further, the inhibition at 1 µM on M3 muscarinic receptors turned out to be 3%. The Ki (at 5-HT2A receptor; in assay [3]) was 1.6 nM in each case. The “α1 [%]” value in [5] is listed as 71%. The “σ [%]” value in the assay on σ receptors stood at 92%.
`O=S(=O)(N[C@@H]1CCN(CCCc2noc3cc(F)ccc23)C1)c1cc2ccccc2o1` [Compound 214, N-[(3R)-1-[3-(6-Fluoro-1,2-benzoxazol-3-yl)propyl]pyrrolidin-3-yl]benzo-furan-2-sulphonamide]: the inhibition at 1 µM came to 34% in assay [1]; 89% in assay [2]; 65% at 5-HT2C receptor; 97% in assay [3]; 15% in assay [4]; 52% in assay [6]. Moreover, on M3 muscarinic receptors, the inhibition at 1 µM amounted to 11%. Besides, the Ki at 5-HT2A receptor was determined as 2.1 nM; in assay [3], 2.8 nM. Further, the “α1 [%]” value in [5] turned out to be 91%. Besides, in the assay on σ receptors, the “σ [%]” value came out at 84%.
`O=S(=O)(N[C@H]1CCN(CCCc2noc3cc(F)ccc23)C1)c1cc2ccccc2o1` [Compound 215, N-[(3S)-1-[3-(6-Fluoro-1,2-benzoxazol-3-yl)propyl]pyrrolidin-3-yl]benzo-furan-2-sulphonamide]: the inhibition at 1 µM in assay [1] was found to be 52%; in assay [2], 85%; on 5-HT2C receptor, 74%; in assay [3], 97%; in assay [4], 35%; in [6], 50%. In addition, the inhibition at 1 µM at M3 muscarinic receptors was 39%. The Ki on 5-HT2A receptor was 1.2 nM; in [3], 3 nM. In addition, in assay [5], the “α1 [%]” value was 89%. Further, the “σ [%]” value with σ receptors is reported as 81%.
On to `Cc1cc(S(=O)(=O)NC2CCN(CCCc3noc4cc(F)ccc34)C2)c(C)s1` (centres unmarked) [Compound 221, N-[1-[3-(6-Fluoro-1,2-benzoxazol-3-yl)propyl]pyrrolidin-3-yl]-2,5-dimethyl-thiophene-3-sulphonamide], for which the inhibition at 1 µM in [1] was found to be 67%; in assay [2], 92%; at 5-HT2C receptor it was 81%; on 5-HT2A receptor, 101%; in [3], 97%; in [4], 67%. In addition, the inhibition at 1 µM in [6] is 66%; at M3 muscarinic receptors, 12%. In addition, the “α1 [%]” value in assay [5] is 85%. In addition, the “σ [%]” value in the assay with σ receptors is reported as 83%.
As for `Cc1cc(S(=O)(=O)N[C@@H]2CCN(CCCc3noc4cc(F)ccc34)C2)c(C)s1` [Compound 222, N-[(3R)-1-[3-(6-Fluoro-1,2-benzoxazol-3-yl)propyl]pyrrolidin-3-yl]-2,5-dimethyl-thiophene-3-sulphonamide], the inhibition at 1 µM came to 72% in assay [1]; 74% in assay [2]; 65% at 5-HT2C receptor; 99% at 5-HT2A receptor; 97% in [3]; 2% in assay [4]. Moreover, the inhibition at 1 µM in assay [6] amounted to 79%; at M3 muscarinic receptors, 18%. In [5], the “α1 [%]” value is 92%. In the assay with σ receptors, the “σ [%]” value was determined as 95%.
For the compound `Cc1cc(S(=O)(=O)N[C@H]2CCN(CCCc3noc4cc(F)ccc34)C2)c(C)s1` [Compound 223, N-[(3S)-1-[3-(6-Fluoro-1,2-benzoxazol-3-yl)propyl]pyrrolidin-3-yl]-2,5-dimethyl-thiophene-3-sulphonamide], the inhibition at 1 µM in assay [1] came out at 49%; in assay [2] it was 57%; at 5-HT2C receptor, 65%; at 5-HT2A receptor, 99%; in assay [3], 89%; in [4], 17%. Besides, the inhibition at 1 µM in [6] was 52%; at M3 muscarinic receptors, 25%. In assay [5], the “α1 [%]” value stood at 86%. Moreover, in the assay on σ receptors, the “σ [%]” value is 89%.

In general, inhibition refers to the relative decrease from the control value, in per cent. By Ki is commonly meant the dissociation constant of the complex between target and ligand, obtained from inhibition or displacement.

For the origin of these results see patent publication US20140135310A1, “SULPHONAMIDE DERIVATIVES OF ALICYCLIC AMINES FOR THE TREATMENT OF CENTRAL NERVOUS SYSTEM DISEASES” (Adamed Sp. z o.o., priority 2011, published 2014).
